Values joined by “and” are separate entries in the source; they are usually repeats but may differ in a detail not shown here. Equal values may be shown once. Read-outs that look alike come from different tables or passages of the source.
Tests used:
Phytophthora infestans = test: whole plant or invertebrate; type: in vivo; settings: for Test 1 preventive value, Measured: applied alone
[1] = system: Pseudoperonospora cubensis; test: Test 2: control effect against cucumber downy mildew; type: in vivo

COc1cc(C)c(C(=O)c2c(OC)ncc(Cl)c2C)c(OC)c1OC [Pyriofenone]
Test 1 preventive value, Measured (Phytophthora infestans; 10 ppm): 0.0 | Test 1 preventive value, Measured (Phytophthora infestans; 50 ppm): 0.0 | Test 1 preventive value, Measured (Phytophthora infestans; 250 ppm): 0.0 | Test 2 Measured ([1]; component (b) alone 250 ppm): 10 | Test 2 Measured ([1]; component (b) alone, 10 ppm): 0 | Test 2 Measured ([1]; component (b) alone, 50 ppm): 5

COC(=O)NCc1cc(/C(C)=N/OCc2cccc(C)n2)ccc1Cl [Pyribencarb]
pest or weed control at 10 ppm (Phytophthora infestans; Phytophthora infestans, in Solanum lycopersicum, read-out: Test 1 preventive value, Measured, applied alone, 10 ppm): 8.3% | pest or weed control at 50 ppm (Phytophthora infestans; Phytophthora infestans, in Solanum lycopersicum, read-out: Test 1 preventive value, Measured, applied alone, 50 ppm): 11.7% | pest or weed control at 250 ppm (Phytophthora infestans; Phytophthora infestans, in Solanum lycopersicum, read-out: Test 1 preventive value, Measured, applied alone, 250 ppm): 23.3% | pest or weed control at 10 ppm ([1]; Pseudoperonospora cubensis, applied alone, 10 ppm, read-out: Test 2 preventive value, Measured): 0% | pest or weed control at 50 ppm ([1]; Pseudoperonospora cubensis, applied alone, 50 ppm, read-out: Test 2 preventive value, Measured): 0% | pest or weed control at 250 ppm ([1]; Pseudoperonospora cubensis, applied alone, 250 ppm, read-out: Test 2 preventive value, Measured): 10%

Cc1cc(C(F)(F)F)nn1CC(=O)N1CCC(c2nc(C3OCc4cccc(OS(C)(=O)=O)c4CO3)cs2)CC1 (centres unmarked) [Compound 1-6, 4-[4-(6-methylsulfonyloxy-1,5-dihydro-3H-2,4-benzodioxepin-3-yl)-2-thiazolyl]-1-[2-[5-methyl-3-(trifluoromethyl)-1H-pyrazol-1-yl]acetyl]piperidine]
pest or weed control at 0.06 ppm (Phytophthora infestans; Phytophthora infestans, in Solanum lycopersicum, read-out: Test 1 Measured preventive value, Compound 1-6 alone 0.06 ppm, average of three repeats): 25% | pest or weed control at 0.3 ppm (Phytophthora infestans; Phytophthora infestans, in Solanum lycopersicum, read-out: Test 1 Measured preventive value, Compound 1-6 alone 0.3 ppm, average of three repeats): 99.5% | pest or weed control at 0.3 ppm (Phytophthora infestans; Phytophthora infestans, in Solanum lycopersicum, read-out: Test 1 Measured preventive value, Compound alone, 0.3 ppm): 98.3% | pest or weed control at 0.3 ppm (Phytophthora infestans; Phytophthora infestans, in Solanum lycopersicum, read-out: Test 1 Measured, Compound alone 0.3 ppm): 98% | pest or weed control at 0.06 ppm (Phytophthora infestans; Phytophthora infestans, in Solanum lycopersicum, read-out: Test 1 preventive value, Measured, applied alone, 0.06 ppm): 68.3% | pest or weed control at 0.3 ppm (Phytophthora infestans; Phytophthora infestans, in Solanum lycopersicum, read-out: Test 1 preventive value, Measured, applied alone, 0.3 ppm): 97.7% | Test 2 Measured preventive value ([1]; Compound 1-6 alone 0.06 ppm, average of three repeats): 5 | Test 2 Measured preventive value ([1]; Compound 1-6 alone 0.3 ppm, average of three repeats): 93.8 | Test 2 Measured preventive value ([1]; Compound alone, 0.3 ppm): 69.58 and 96.3 | pest or weed control at 0.3 ppm ([1]; Pseudoperonospora cubensis, Compound alone 0.3 ppm, read-out: Test 2 Measured): 98.5% | pest or weed control at 0.06 ppm ([1]; Pseudoperonospora cubensis, applied alone, 0.06 ppm, read-out: Test 2 preventive value, Measured): 40% | pest or weed control at 0.3 ppm ([1]; Pseudoperonospora cubensis, applied alone, 0.3 ppm, read-out: Test 2 preventive value, Measured): 98%

CCCC1COC(Cn2cncn2)(c2ccc(Cl)cc2Cl)O1 (centres unmarked) [Propiconazole]
pest or weed control at 8 ppm (Phytophthora infestans; Phytophthora infestans, in Solanum lycopersicum, read-out: Test 1 Measured, component (b) alone 8 ppm): 0% | pest or weed control at 40 ppm (Phytophthora infestans; Phytophthora infestans, in Solanum lycopersicum, read-out: Test 1 Measured, component (b) alone 40 ppm): 35% | pest or weed control at 200 ppm (Phytophthora infestans; Phytophthora infestans, in Solanum lycopersicum, read-out: Test 1 Measured, component (b) alone 200 ppm): 53.3% | pest or weed control at 8 ppm ([1]; Pseudoperonospora cubensis, component (b) alone 8 ppm, read-out: Test 2 Measured): 0% | pest or weed control at 40 ppm ([1]; Pseudoperonospora cubensis, component (b) alone 40 ppm, read-out: Test 2 Measured): 7.5% | pest or weed control at 200 ppm ([1]; Pseudoperonospora cubensis, component (b) alone 200 ppm, read-out: Test 2 Measured): 57.5%

CC(=O)Oc1c(C)c(C)nc2c(F)cc(C(C)(C)C)cc12 [Tebufloquin]
Test 1 Measured (Phytophthora infestans; component (b) alone 4 ppm): 0.0 | Test 1 Measured (Phytophthora infestans; component (b) alone, 20 ppm): 0.0 | Test 1 Measured (Phytophthora infestans; component (b) alone, 100 ppm): 46.7 | Test 2 Measured ([1]; component (b) alone 4 ppm): 0 | Test 2 Measured ([1]; component (b) alone, 20 ppm): 0 | Test 2 Measured ([1]; component (b) alone, 100 ppm): 0

Mancozeb
Test 1 Measured (Phytophthora infestans; component (b) alone, 2 ppm): 21.8 | Test 1 Measured preventive value (Phytophthora infestans; component (b) alone, 2 ppm): 11.7 | Test 1 Measured (Phytophthora infestans; component (b) alone, 10 ppm): 80.5 | Test 1 Measured preventive value (Phytophthora infestans; component (b) alone, 10 ppm): 84.2 | Test 1 Measured (Phytophthora infestans; component (b) alone, 50 ppm): 100.0 | Test 1 Measured preventive value (Phytophthora infestans; component (b) alone, 50 ppm): 100.0 | Test 2 Measured ([1]; component (b) alone, 2 ppm): 33 | Test 2 Measured ([1]; component (b) alone, 10 ppm): 100 | Test 2 Measured preventive value ([1]; component (b) alone, 10 ppm): 99 | Test 2 Measured ([1]; component (b) alone, 50 ppm): 100 | Test 2 Measured preventive value ([1]; component (b) alone, 50 ppm): 100

Source: patent US11903387B2 (priority 2016, dated 2024)
